This passage reports IC50 results from paper PMC13168289, “Potent acridone antimalarial against all three life stages of Plasmodium” (Nature Communications, 2026).

The nature of this data set: cytotoxicity against HepG2 cells. The data set is classed as cell-based. To be noted: human, HepG2 cells; read-out: inhibition IC50 vs HepG2. Here is the method:
Cytotoxicity was evaluated in human HepG2 liver cells, using an MTT assay. Briefly, HepG2 cells were cultured in complete Dulbecco’s modified Eagle’s medium (DMEM; Gibco-Invitrogen, No. 11995-065) prepared by supplementing DMEM with 10% heat inactivated FBS (Gibco-Invitrogen, No. 16000-036), 100 units/mL penicillin, and 100 µg/mL streptomycin. Cell viability was assessed using trypan blue. Ninety-six-well plates were seeded with 2 × 10^4 cells per well and incubated at 37 °C overnight in a humidified 5% CO2 atmosphere. Test compound plates were prepared with an INTEGRA assist plus station and 96-well plates containing 11 duplicate 2-fold serial dilutions of test compound suspended in DMSO. The diluted test compound was then added to the corresponding well preseeded with HepG2 cells. […] After incubation, 20 µL of a 0.1 mg/mL solution of resazurin diluted in PBS was added to each well, and all plates were subsequently incubated for 3–4 h in an incubator. Absorbance was determined with the Molecular Devices SpectraMax plate reader. Three independent experiments, each in duplicate, were performed, and the IC50 values were determined using GraphPad Prism software (Version 10) using the non-linear regression equation (sigmoidal dose-response, variable slope).

By IC50 is commonly meant the concentration needed to halve the response being measured. For the compound `O=C1C(O)=C([C@H]2CC[C@H](c3ccc(Cl)cc3)CC2)C(=O)c2ccccc21` [ATV, atovaquone], the IC50 at 24 h stood at 61.2 µM.
